Counter-ions that a name gives are not always drawn.
What was measured:
[1] = Water solubility; assay type: physicochemical
[2] = system: Cebus apella monkeys with iron overload; details: cited from earlier work
[3] = system: human patients; details: oral; cited from earlier work
[4] = system: iron-loaded Cebus apella monkeys; experiment: Chelator-induced iron excretion (iron-balance study) in iron-loaded Cebus apella monkeys; assay type: in vivo; details: s.c., 150 μmoles/Kg; for efficiency of iron chelation: mean
Description: After intramuscular anesthesia with ketamine, an intravenous infusion was started in a leg vein. […] Two to three infusions, separated by between 10 and 14 days, were necessary to provide about 500 mg iron per Kg body weight. […] At least twenty half-lives, sixty days, passed before using any of the animals in experiments evaluating iron-chelating agents.
Seven days before the administration of the drug, the animals were placed in metabolic cages and started on a low-iron liquid diet. The monkeys were maintained on the low-iron liquid diet for the duration of the experiment. They were given food according to their body weight, and intake was very carefully monitored.
Three days prior to drug administration, day −2 to day 0, baseline iron intake and output values were measured. This same measurement was made for day +1 to day +3. The total amount of iron intake was compared with the total amount of iron excreted.
Fecal and urine samples were collected at 24 hour intervals. The collections began four days prior to the administration of the test drug and continued for an additional five days after the drug was given. Fecal samples were assayed for the presence of occult blood, weighed, and mixed with distilled deionized water prior to autoclaving for 30 minutes. The mixture was then freeze-dried, and a known portion of the powder was mixed with low-iron nitric acid and refluxed for 24 hours. Once any particulate matter in the digested samples was removed by centrifugation, iron concentrations were determined by flame atomic absorption. Monkey urine samples were acidified and reconstituted to initial volume after sterilization, if necessary.
In the primates, DFOM was administered s.c. in sterile water for injection at a dose of 150 μmoles/Kg, while HBED was first dissolved in a phosphate buffer, ph 7.4, thus forming the mono-sodium salt and given s.c. in 40% wt./vol. Cremophor RH40 at a dose of 75 or 150 μmoles/Kg. In addition, in order to more closely mimic clinical applications in patients, mono-sodium HBED was also given to the monkeys s.c. at a dose of 150 μmoles/Kg in a phosphate buffer; no Cremophor vehicle was used.
The efficiency of each chelator was calculated on the basis of a 1:1 ligand-iron complex.
Groups of monkeys (n=6 in each group) were given s.c. injections of either DFOM or MS HBED. […] In our initial experiments, HBED monohydrochloride monohydrate was dissolved in a phosphate buffer at p.7.2 to form a solution of the MS HBED and administered in 40% wt./vol. […] HBED monohydrochloride monohydrate-Cremophor was administered by s.c. injection at doses of 75 or 150 μmoles/Kg.

[5] = typical, background statement; cited from earlier work

Q: Which water solubility [1] does the source give for `Cl.O.O=C(O)CN(CCN(CC(=O)O)Cc1ccccc1O)Cc1ccccc1O` [HBED monohydrochloride monohydrate] here?
A: low water solubility

Q: With `O=C(O)CN(CCN(CC(=O)O)Cc1ccccc1O)Cc1ccccc1O` [HBED, N,N′-bis(2-hydroxybenzyl)ethylenediamine-N,N′-diacetic acid] as the compound, how does the chelator-induced iron excretion ([2]; oral, phosphate buffer, previously published study) read?
A: 50±44 μg Fe/Kg body weight

Q: And the “share of chelator-induced iron excretion in the stool” value (shortened to “share … in the stool”) ([2]; oral, phosphate buffer)?
A: about 56%

Q: What about the “share of chelator-induced iron excretion in the urine” value (“share … in the urine” below) ([2]; oral, phosphate buffer) of the same compound?
A: about 44%

Q: And the “efficiency of iron chelation” value ([2]; oral, phosphate buffer, mean)?
A: 0.5±0.5%

Q: And the “level of iron excretion for treatment of iron overload” value [3]?
A: ineffective

Q: For `O=C([O-])CN(CCN(CC(=O)O)Cc1ccccc1O)Cc1ccccc1O.[Na+]` [MS HBED, HBED, monosodium salt], which “mean net iron excretion, phosphate buffer vs Cremophor preparation” value ([4]; P>0.2) is on record?
A: no significant difference

Q: What about the “share … in the stool” value ([4]; phosphate buffer) of the same compound?
A: about 92%

Q: And the “share … in the urine” value ([4]; phosphate buffer)?
A: about 8%

Q: What about the “iron excretion relative to DFOM” value ([4]; phosphate buffer vs DFOM s.c. 150 μmoles/Kg, P<0.001) of the same compound?
A: about twice

Q: What about the chelator-induced iron excretion ([4]; phosphate buffer, no Cremophor) of the same compound?
A: 899±193 μg Fe/Kg body weight

Q: And the “efficiency of iron chelation” value ([4]; phosphate buffer)?
A: 10.7±2.3%

Q: For `CC(=O)N(O)CCCCCNC(=O)CCC(=O)N(O)CCCCCNC(=O)CCC(=O)N(O)CCCCCN` [DFOM, desferrioxamine B mesylate], which “share … in the stool” value ([4]; aqueous solution) is on record?
A: about 65%

Q: And the “share … in the urine” value ([4]; aqueous solution)?
A: about 35%

Q: What about the chelator-induced iron excretion ([4]; aqueous solution, n=6) of the same compound?
A: 435±115 μg Fe/Kg body weight

Q: And the “efficiency of iron chelation” value ([4]; aqueous solution)?
A: 5.1±1.3%

Q: And the “activity in the Cebus apella monkey screen compared with oral HBED or its dimethyl ester” value ([2]; DFOM subcutaneous vs HBED or dimethyl ester oral)?
A: significantly higher activity

Q: And the “share of the compound administered that binds iron” value [5]?
A: ≤ 5%
